Assay results reported in US11149033B2, “Heteroaryl compound, enantiomer, diastereomer or pharmaceutically acceptable salt thereof, and antiviral composition containing same as active ingredient” (priority 2016, dated 2021).
Like-named read-outs stand apart in the source and are kept apart here.

Key:
[1] = test system: A/California/07/2009 (H1N1); assay: Antiviral activity (drug efficacy evaluation by concentration) against A/California/07/2009 (H1N1); assay type: cell-based, A type influenza virus; details: Influenza A virus
[2] = test system: B/Florida/04/2006; assay: Antiviral activity (drug efficacy evaluation by concentration) against B/Florida/04/2006; assay type: cell-based, B type influenza virus
[3] = in vitro
[4] = test system: A/Perth/16/2009 (H3N2); assay: Antiviral activity (drug efficacy evaluation by concentration) against A/Perth/16/2009 (H3N2); assay type: cell-based, A type influenza virus; details: Influenza A virus
[5] = CC50, third EC50/CC50 column pair (c7), beside the EC50 of c6
[6] = H1N1, A/California/07/2009 (H1N1), read-out: EC50 A/California/07/2009 (H1N1)
[7] = read-out: EC50 B/Florida/04/2006, B/Florida/04/2006
[8] = CC50 B/Florida/04/2006, cytotoxicity in the B/Florida/04/2006 assay
[9] = H3N2, A/Perth/16/2009 (H3N2), read-out: EC50 A/Perth/16/2009 (H3N2)

Cc1nn(Cc2nnc(S(=O)(=O)Cc3ccccc3-c3ccccc3)o2)c(C)c1Br [Compound 96, 2-(([1,1′-biphenyl]-2-ylmethyl)sulfonyl)-5-((4-bromo-3,5-dimethyl-1H-pyrazol-1-yl)methyl)-1,3,4-oxadiazole]
EC50 ([1]; H1N1, read-out: EC50): 1.3 µM
EC50 [2]: 1.03 µM
CC50 ([3]; CC50, beside the EC50 of c2): > 50 µM
CC50 ([3]; CC50, beside the EC50 of c4): > 50 µM
CC50 [3, 5]: > 50 µM
EC50 ([4]; H3N2, read-out: EC50): 1.3 µM

FC(F)(c1ccc(Br)cc1)c1nnc(SCc2ccccc2-c2ccccc2)o1 [Compound 74, 2-(([1,1′-biphenyl]-2-ylmethyl)thio)-5-((4-bromophenyl)difluoromethyl)-1,3,4-oxadiazole]
EC50 [1, 6]: 21.2 µM
EC50 [2, 7]: > 50 µM
CC50 [3, 8]: > 50 µM
EC50 [4, 9]: 11 µM

Brc1ccc(Nc2nnc(CCc3ccccc3-c3ccccc3)o2)cc1 [Compound 118, 5-(2-([1,1′-biphenyl]-2-yl)ethyl)-N-(4-bromophenyl)-1,3,4-oxadiazol-2-amine]
EC50 ([1]; H1N1, read-out: EC50): 43.9 µM
EC50 [2]: > 50 µM
CC50 ([3]; CC50, beside the EC50 of c2): > 50 µM
CC50 ([3]; CC50, beside the EC50 of c4): > 50 µM
CC50 [3, 5]: > 50 µM
EC50 ([4]; H3N2, read-out: EC50): > 50 µM

Cc1nc2ccccc2n1Cc1nnc(SCc2ccccc2-c2ccccc2)o1 [Compound 41, 2-(([1,1′-biphenyl]-2-ylmethyl)thio)-5-((2-methyl-1H-benzo[d]imidazol-1-yl)methyl)-1,3,4-oxadiazole]
EC50 [1, 6]: 0.69 µM
EC50 [2, 7]: 1.21 µM
CC50 [3, 8]: 19.7 µM
EC50 [4, 9]: 0.91 µM

Brc1cnn(Cc2nnc(SCc3ccccc3-c3ccccc3)o2)c1 [Compound 3, 2-(([1,1′-biphenyl]-2-ylmethyl)thio)-5-((4-bromo-1H-pyrazol-1-yl)methyl)-1,3,4-oxadiazole]
EC50 [1, 6]: 1.36 µM
EC50 [2, 7]: 1.21 µM
CC50 [3, 8]: > 50 µM
EC50 [4, 9]: 1.75 µM

Cc1nn(Cc2nnc(SCc3ccccc3)o2)c(C)c1Br [Compound 14, 2-(benzylthio)-5-((4-bromo-3,5-dimethyl-1H-pyrazol-1-yl)methyl)-1,3,4-oxadiazole]
EC50 [1, 6]: 18 µM
EC50 [2, 7]: 16.4 µM
CC50 [3, 8]: > 50 µM
EC50 [4, 9]: 20.5 µM

Cc1nn(CCc2nnc(SCc3ccccc3-c3ccccc3)o2)c(C)c1Br [Compound 49, 2-(([1,1′-biphenyl]-2-ylmethyl)thio)-5-(2-(4-bromo-3,5-dimethyl-1H-pyrazol-1-yl)ethyl)-1,3,4-oxadiazole]
EC50 [1, 6]: > 50 µM
EC50 [2, 7]: > 50 µM
CC50 [3, 8]: > 50 µM
EC50 [4, 9]: > 50 µM

Cc1nn(Cc2nnc(SCc3ccccc3-c3ccoc3)o2)c(C)c1Br [Compound 34, 2-((4-bromo-3,5-dimethyl-1H-pyrazol-1-yl)methyl)-5-((2-(furan-3-yl)benzyl)thio)-1,3,4-oxadiazole]
EC50 [1, 6]: 1.4 µM
EC50 [2, 7]: 4.48 µM
CC50 [3, 8]: 22.8 µM
EC50 [4, 9]: 1.8 µM

Cc1ccccc1CCc1nnc(Cc2ccc(Br)cc2)o1 [Compound 103, 2-(4-bromobenzyl)-5-(2-methylphenethyl)-1,3,4-oxadiazole]
EC50 ([1]; H1N1, read-out: EC50): 3.1 µM
EC50 [2]: 3.15 µM
CC50 ([3]; CC50, beside the EC50 of c2): > 50 µM
CC50 ([3]; CC50, beside the EC50 of c4): > 50 µM
CC50 [3, 5]: > 50 µM
EC50 ([4]; H3N2, read-out: EC50): 3 µM

CC(C)c1ccccc1CCc1nnc(Cc2ccc(Br)cc2)o1 [Compound 92, 2-(4-bromobenzyl)-5-(2-isopropylphenethyl)-1,3,4-oxadiazole]
EC50 ([1]; H1N1, read-out: EC50): 7.17 µM
EC50 [2]: 6.59 µM
CC50 ([3]; CC50, beside the EC50 of c2): > 50 µM
CC50 ([3]; CC50, beside the EC50 of c4): > 50 µM
CC50 [3, 5]: > 50 µM
EC50 ([4]; H3N2, read-out: EC50): 6.42 µM

Fc1ccc(/C=C/c2nnc(Cc3cncc(Br)c3)o2)c(Cl)c1 [Compound 205, (E)-2-((5-bromopyridin-3-yl)methyl)-5-(2-chloro-4-fluorostyryl)-1,3,4-oxadiazole]
EC50 ([1]; H1N1, read-out: EC50): 43 µM
EC50 [2]: 34.9 µM
CC50 ([3]; CC50, beside the EC50 of c2): > 50 µM
CC50 ([3]; CC50, beside the EC50 of c4): > 50 µM
CC50 [3, 5]: > 50 µM
EC50 ([4]; H3N2, read-out: EC50): 21.6 µM

CC(C)c1ccccc1OCc1nnc(Cc2ccc(Br)cc2)o1 [Compound 115, 2-(4-bromobenzyl)-5-((2-isopropylphenoxy)methyl)-1,3,4-oxadiazole]
EC50 ([1]; H1N1, read-out: EC50): 44.9 µM
EC50 [2]: 45.1 µM
CC50 ([3]; CC50, beside the EC50 of c2): > 50 µM
CC50 ([3]; CC50, beside the EC50 of c4): > 50 µM
CC50 [3, 5]: > 50 µM
EC50 ([4]; H3N2, read-out: EC50): 38.2 µM

Brc1ccc(Nc2nnc(/C=C/c3ccccc3Br)o2)cc1 [Compound 83, (E)-N-(4-bromophenyl)-5-(2-bromostyryl)-1,3,4-oxadiazol-2-amine]
EC50 ([1]; H1N1, read-out: EC50): 4.25 µM
EC50 [2]: 4.63 µM
CC50 ([3]; CC50, beside the EC50 of c2): > 50 µM
CC50 ([3]; CC50, beside the EC50 of c4): > 50 µM
CC50 [3, 5]: > 50 µM
EC50 ([4]; H3N2, read-out: EC50): 4.75 µM

Cc1nn(Cc2nnc(SCc3ccccc3-c3cccnc3)o2)c(C)c1Br [Compound 19, 2-((4-bromo-3,5-dimethyl-1H-pyrazol-1-yl)methyl)-5-((2-(pyridin-3-yl)benzyl)thio)-1,3,4-oxadiazole]
EC50 [1, 6]: > 50 µM
EC50 [2, 7]: > 50 µM
CC50 [3, 8]: > 50 µM
EC50 [4, 9]: > 50 µM

Cc1nn(Cc2nnc(/C=C/c3ccccc3C(C)C)o2)c(C)c1Br [Compound 50, (E)-2-((4-bromo-3,5-dimethyl-1H-pyrazol-1-yl)methyl)-5-(2-isopropylstyryl)-1,3,4-oxadiazole]
EC50 [1, 6]: 18.7 µM
EC50 [2, 7]: 24.5 µM
CC50 [3, 8]: > 50 µM
EC50 [4, 9]: 11.4 µM

CC(=O)N(Cc1ccccc1-c1ccccc1)c1nnc(Cn2nc(C)c(Br)c2C)o1 [Compound 45, N-([1,1′-biphenyl]-2-ylmethyl)-N-(5-((4-bromo-3,5-dimethyl-1H-pyrazol-1-yl)methyl)-1,3,4-oxadiazol-2-yl)acetamide]
EC50 [1, 6]: 26.2 µM
EC50 [2, 7]: 23.8 µM
CC50 [3, 8]: 33.5 µM
EC50 [4, 9]: 25.8 µM

CC(c1ccccc1)c1nnc(SCc2ccccc2-c2ccccc2)o1 (stereo not shown) [Compound 73, 2-(([1,1′-biphenyl]-2-ylmethyl)thio)-5-(1-phenylethyl)-1,3,4-oxadiazole]
EC50 [1, 6]: 17.2 µM
EC50 [2, 7]: > 50 µM
CC50 [3, 8]: > 50 µM
EC50 [4, 9]: 41.7 µM

Cc1ccccc1C(C)Cc1nnc(Cc2ccc(Br)cc2)o1 (stereo not shown) [Compound 110, 2-(4-bromobenzyl)-5-(2-(o-tolyl)propyl)-1,3,4-oxadiazole]
EC50 ([1]; H1N1, read-out: EC50): 32.2 µM
EC50 [2]: 46.7 µM
CC50 ([3]; CC50, beside the EC50 of c2): 46.7 µM
CC50 ([3]; CC50, beside the EC50 of c4): > 50 µM
CC50 [3, 5]: > 50 µM
EC50 ([4]; H3N2, read-out: EC50): 41.5 µM

CC(C)c1ccccc1/C=C/c1nnc(C(C)c2ccccc2)o1 (stereo not shown) [Compound 147, 2-(2-isopropylstyryl)-5-(1-phenylethyl)-1,3,4-oxadiazole]
EC50 ([1]; H1N1, read-out: EC50): 6 µM
EC50 [2]: 4.4 µM
CC50 ([3]; CC50, beside the EC50 of c2): > 50 µM
CC50 ([3]; CC50, beside the EC50 of c4): > 50 µM
CC50 [3, 5]: > 50 µM
EC50 ([4]; H3N2, read-out: EC50): 6 µM

Cc1nn(Cc2nnc(Cc3cccc(Cl)c3)o2)c(C)c1Br [Compound 46, 2-((4-bromo-3,5-dimethyl-1H-pyrazol-1-yl)methyl)-5-(3-chlorobenzyl)-1,3,4-oxadiazole]
EC50 [1, 6]: 24.3 µM
EC50 [2, 7]: 27.5 µM
CC50 [3, 8]: > 50 µM
EC50 [4, 9]: 21.8 µM

Cc1nn(Cc2nnc(SCc3ccccc3Cc3ccccc3)o2)c(C)c1Br [Compound 38, 2-((2-benzylbenzyl)thio)-5-((4-bromo-3,5-dimethyl-1H-pyrazol-1-yl)methyl)-1,3,4-oxadiazole]
EC50 [1, 6]: 1.03 µM
EC50 [2, 7]: 1.18 µM
CC50 [3, 8]: > 50 µM
EC50 [4, 9]: 1.04 µM

Clc1cccc(Cc2nnc(SCc3ccccc3-c3ccccc3)o2)c1 [Compound 95, 2-(([1,1′-biphenyl]-2-ylmethyl)thio)-5-(3-chlorobenzyl)-1,3,4-oxadiazole]
EC50 ([1]; H1N1, read-out: EC50): 12.5 µM
EC50 [2]: 37.6 µM
CC50 ([3]; CC50, beside the EC50 of c2): > 50 µM
CC50 ([3]; CC50, beside the EC50 of c4): > 50 µM
CC50 [3, 5]: > 50 µM
EC50 ([4]; H3N2, read-out: EC50): 41.4 µM

CC(C)c1ccccc1/C=C/c1nnc(Cc2ccc(Br)c(F)c2)o1 [Compound 164, 2-(4-bromo-3-fluorobenzyl)-5-(2-isopropylstyryl)-1,3,4-oxadiazole]
EC50 ([1]; H1N1, read-out: EC50): 5.16 µM
EC50 [2]: 8.35 µM
CC50 ([3]; CC50, beside the EC50 of c2): > 50 µM
CC50 ([3]; CC50, beside the EC50 of c4): > 50 µM
CC50 [3, 5]: > 50 µM
EC50 ([4]; H3N2, read-out: EC50): 4.32 µM

Cc1nn(Cc2nnc(SCC(=O)c3ccccc3-c3ccccc3)o2)c(C)c1Br [Compound 13, 1-([1,1′-biphenyl]-2-yl)-2-((5-((4-bromo-3,5-dimethyl-1H-pyrazol-1-yl)methyl)-1,3,4-oxadiazol-2-yl)thio)ethan-1-on]
EC50 [1, 6]: > 50 µM
EC50 [2, 7]: 42.5 µM
CC50 [3, 8]: > 50 µM
EC50 [4, 9]: > 50 µM
